Series [1] has as its system MCF7 cells. The series is described as follows: Mammosphere formation assay. Type of series: cell-based, human. To be noted: 5 μM, FIG. 5. An excerpt: The present approach involves methods of testing compounds, and in particular mitoriboscins, for anti-cancer properties. As discussed above, vHTS and computational chemistry may be used to identify candidate mitochondrial inhibitors. Those candidates may be tested for specific anti-cancer properties. For examples, the inventors compared seven candidate compounds in parallel for their ability to inhibit mammosphere formation in MCF7 cells. […] For example, 23/G4 (Group 1) reduced mammosphere formation by 50% at this concentration. Similarly, 24/F9 (Group 2) and 24/D4 (Group 3), both reduced mammosphere formation by ˜90%.

Series [2] relates to MRSA ATCC 43300. The series is described as follows: MIC by broth dilution method. Type of series: cell-based, Methicillin-resistant Staphylococcus aureus. The protocol: (§1) The minimal inhibitory concentration (MIC) of the antibacterial compounds may be determined using the broth dilution method, according to CLSI guidelines. Test compound solutions (or antibiotic solutions used as positive controls) were diluted, serially, with MHB medium. Then, the suspensions of the microorganisms, prepared from overnight cultures of bacteria in the MHB medium, at a concentration of 10^6 CFU/ml, were added to each dilution in a 1:1 ratio. McFarland standards were used as a reference to adjust the turbidity of microorganism suspensions. Growth (or lack thereof) of the microorganisms was determined after incubation for 24 hours at 37° C. by turbidimetry (wavelength of 600 nm). MIC 50 and MIC 99 are defined as the minimum inhibitory concentration of the compound required for 50% and 99% inhibition of bacterial growth. […] The susceptibility test by measurement of MIC was performed in triplicate and repeated three times independently. Statistical significance was determined using the Student's t-test and values of less than 0.05 were considered significant.
(§2) In order to determine the minimal inhibitory concentration (MIC) for 24/F9, 24/D4 and 23/G4, the broth dilution method may be performed.
In general terms: In broth dilution the organism is exposed to a series of concentrations in liquid medium.

Series [3] has as its system MCF7 cells. As to the kind of experiment: Seahorse XF96 metabolic flux analysis (OCR/ECAR). Format: cell-based, human. An excerpt:
The present approach further involves methods of functional validation at step S105, during which a compound's function as a mitochondrial inhibitor may be confirmed. A number of methods may be used for functional validation, including, for example, metabolic flux analysis, mammosphere assays, viability assays, and antibiotic (anti-bacterial and/or anti-fungal) activity. For example, the inventors determined extracellular acidification rates (ECAR) and real-time oxygen consumption rates (OCR) for MCF7 cells using the Seahorse Extracellular Flux (XF96) analyzer (Seahorse Bioscience, MA, USA). MCF7 cells were maintained in DMEM supplemented with 10% FBS (fetal bovine serum), 2 mM GlutaMAX, and 1% Pen-Strep. 5,000 cells per well were seeded into XF96-well cell culture plates, and incubated overnight at 37° C. in a 5% CO2 humidified atmosphere. After 24 hours, cells were treated with selected compounds showing ATP-depletion without prominent cytotoxicity at various concentrations (or vehicle alone). After 72 hours of treatment, cells were washed in pre-warmed XF assay media (for OCR measurement, XF assay media was supplemented with 10 mM glucose, 1 mM Pyruvate, 2 mM L-glutamine and adjusted at pH 7.4). Cells were maintained in 175 μL/well of XF assay media at 37° C. in a non-CO2 incubator for 1 hour. During incubation, 25 μL of 80 mM glucose, 9 μM oligomycin, 1M 2-deoxyglucose (for ECAR measurement) and 25 μL of 10 μM oligomycin, 9 μM FCCP, 10 μM rotenone, 10 μM antimycin A (for OCR measurement) in XF assay media was loaded into the injection ports of the XFe-96 sensor cartridge. During the experiment, the instrument injected these inhibitors into the wells at a given time point, while ECAR/OCR was measured continuously. ECAR and OCR measurements were normalized by protein content (using the Sulphorhodamine B assay). Data sets were analyzed by XFe-96 software, using one-way ANOVA and Student's t-test calculations. All experiments were performed in triplicate, and results validated the mitochondrial inhibition effects of mitoriboscin compounds described herein. It should be appreciated that numerous methods are known for functional validation, and that persons of skill in the art may select one or more depending on the validation needs (e.g., other assays that measure or approximate mitochondrial function). The present approach involves methods of function validation of mitoriboscin compounds. For example, the inventors assessed functional validation of three candidates using the Seahorse Analyzer, which quantitatively measures oxygen consumption rate (OCR) and extracellular acidification rate (ECAR). OCR is a surrogate marker for OXPHOS and ECAR is a surrogate marker for glycolysis and L-lactate production.

Series [4] has as its system hTERT-BJ1 cells. As to the kind of experiment: Cell viability of normal fibroblasts. Type of series: cell-based. To be noted: 5 μM, normal human fibroblasts, FIG. 6. As to the method:
(§3) The present approach includes methods of confirming cell viability. Persons of skill in the art may select one or more methods for confirming cell viability suitable for the particular embodiment. The inventors initially used the Sulphorhodamine (SRB) assay, which is based on the measurement of cellular protein content. After treatment for 72 hours in 96-well plates, cells were fixed with 10% trichloroacetic acid (TCA) for 1 hour in the cold room, and were dried overnight at room temperature. Then, cells were incubated with SRB for 15 min, washed twice with 1% acetic acid, and air dried for at least 1 hour. Finally, the protein-bound dye was dissolved in a 10 mM Tris, pH 8.8 solution and read using the plate reader at 540-nm. Using the SRB assay, the inventors selected only the compounds depleting ATP levels without prominent cytotoxicity for further analysis. Prominent cytotoxicity was defined as fewer than 30% of cells still on the plate. Of course, embodiments employing other cell viability confirmation methodology may select compounds for further analysis based on other considerations as may be known in the art.
(§4) Based on this analysis, the inventors assessed the functional effects of the three candidates on overall viability in MCF7 cell monolayers and normal human fibroblasts (hTERT-BJ1 cells) (FIG. 6). […]

Series [5] has as its system C. albicans. The series is described as follows: MIC by broth dilution method. Type of series: cell-based. To be noted: C. albicans ATCC 13883. The protocol: as §1, §2
Series [6] relates to MCF7 cell monolayers. As to the kind of experiment: Cell viability of MCF7 monolayers (SRB). Format: cell-based, human. Conditions: FIG. 6. The protocol:
as §3, §4

The test system of series [7] is K. pneumoniae ATCC 13883. The series is described as follows: MIC by broth dilution method. Type of series: cell-based. As to the method:
as §1, with “nm).” for “nm). MIC 50 and MIC 99 are defined as the minimum inhibitory concentration of the compound required for 50% and 99% inhibition of bacterial growth.”, “independently.” for “independently. Statistical significance was determined using the Student's t-test and values of less than 0.05 were considered significant.”

The test system of series [8] is Staph. aureus ATCC 25923 (MSSA). As to the kind of experiment: MIC by broth dilution method. Format: cell-based. As to the method: as §1, with “nm).” for “nm). MIC 50 and MIC 99 are defined as the minimum inhibitory concentration of the compound required for 50% and 99% inhibition of bacterial growth.”, “independently.” for “independently. Statistical significance was determined using the Student's t-test and values of less than 0.05 were considered significant.”

In series [9] the test system is Strept. pyogenes ATCC 19615. The series is described as follows: MIC by broth dilution method. Format: cell-based. As to the method: as §1, with “nm).” for “nm). MIC 50 and MIC 99 are defined as the minimum inhibitory concentration of the compound required for 50% and 99% inhibition of bacterial growth.”, “independently.” for “independently. Statistical significance was determined using the Student's t-test and values of less than 0.05 were considered significant.”

For series [10], the system named is E. coli ATCC 25922. The series is described as follows: MIC by broth dilution method. Type of series: cell-based. To be noted: E. coli ATCC 25922, 24 hours at 37° C. The protocol:
as §1, with “nm).” for “nm). MIC 50 and MIC 99 are defined as the minimum inhibitory concentration of the compound required for 50% and 99% inhibition of bacterial growth.”, “independently.” for “independently. Statistical significance was determined using the Student's t-test and values of less than 0.05 were considered significant.”

The test system of series [11] is P. auriginosa ATCC 27853. As to the kind of experiment: MIC by broth dilution method. Type of series: cell-based, P. aeruginosa. As to the method:
as §1, with “nm).” for “nm). MIC 50 and MIC 99 are defined as the minimum inhibitory concentration of the compound required for 50% and 99% inhibition of bacterial growth.”, “independently.” for “independently. Statistical significance was determined using the Student's t-test and values of less than 0.05 were considered significant.”

Series [12] deals with twelve different cell lines, representing eight different cancer types. Conditions: cited from earlier work.
[13] abbreviates: Staph. aureus ATCC 25923 (Table 3).

≈ marks a conversion by molar mass, not a printed value. Some results are limits rather than exact numbers.

In the case of `OC1C(NCc2ccccc2)CCCC1Oc1ccccc1Oc1ccc(Cl)cc1` (stereo not shown) [23/G4], the “reduction of mammosphere formation” value in series [1] came out at 50%. Besides, the “MIC 50%” value in [2] (MRSA ATCC 43300) came to 16 µg/mL (≈ 37.7 µM); in [5], 8 µg/mL (≈ 18.9 µM); in series [7], 16 µg/mL (≈ 37.7 µM); in series [8] (MSSA ATCC 25923 (Table 4)), 4 µg/mL (≈ 9.44 µM); in series [8] (setting [13]), 4 µg/mL (≈ 9.44 µM); in [9], 4 µg/mL (≈ 9.44 µM). Besides, the “MIC 50%” value in series [10] is greater than 16 µg/mL; in [11], 16 µg/mL (≈ 37.7 µM). Further, the “MIC 99%” value in [2] (MRSA ATCC 43300) was greater than 32 µg/mL; in series [5], 16 µg/mL (≈ 37.7 µM); in [7] it was 32 µg/mL (≈ 75.5 µM); in series [8] (MSSA ATCC 25923 (Table 4)), 8 µg/mL (≈ 18.9 µM); in series [8] (setting [13]), 8 µg/mL (≈ 18.9 µM); in series [9] it was 8 µg/mL (≈ 18.9 µM). The results for the “MIC 99%” value in [10] and in series [11] were greater than 32 µg/mL and 32 µg/mL (≈ 75.5 µM), respectively. For the same compound, the “sensitivity of MRSA” value in [2] (MRSA, summary of Table 4) was “sensitive”. Besides, the “reduction of ATP levels” value in [3] (500 nM) is greater than 50%; in [3] (2.5 μM, FIG. 7), roughly 75%. The “reduction in ATP levels” value in series [3] (5 μM, FIG. 10) is recorded as “greater than 75%”. The “increase in glycolysis rates” value in [3] (ECAR) was “more than 1.5 fold”. Moreover, the “inhibition of mitochondrial oxygen-consumption” value in [3] (FIGS. 7, 8 and 9) is given as “dose-dependently inhibited”. Besides, the “rank order potency to reduce maximal respiration and ATP production” value in [3] (top 10 hits, FIG. 10) was “top 6”. For the same compound, the “effect on viability of hTERT-BJ1 cells” value in series [4] is “no effect”. In series [6] (500 nM and 2.5 μM), the “effect on overall cell viability of MCF7 monolayers” value was “little or no effect”. Further, the “reduction of viability of MCF7 cells” value in [6] (5 μM) stood at 70%.
Regarding `CC[C@H]1OC(=O)[C@H](C)[C@@H](O[C@H]2C[C@@](C)(OC)[C@@H](O)[C@H](C)O2)[C@H](C)[C@@H](O[C@@H]2O[C@H](C)C[C@H](N(C)C)[C@H]2O)[C@](C)(O)C[C@@H](C)C(=O)[C@H](C)[C@@H](O)[C@]1(C)O` [Erithromycin], the “efficacy in cancer cell lines” value in series [12] is listed as “show efficacy”.

The values are drawn from patent publication US11311501B2, “Mitoriboscins: mitochondrial-based therapeutics targeting cancer cells, bacteria, and pathogenic yeast” (LUNELLA BIOTECH, INC., priority 2017, dated 2022).
